Laboratory results published in article PMC5559341 (ACS chemical neuroscience, 2017).

Key:
Test in all cases: TEVC electrophysiology, Xenopus oocytes
Format in all cases: cell-based
GluN1/2C = GluN1/2C (Rattus norvegicus, UniProt P35439+Q00961)
GluN1/2D = GluN1/2D (Rattus norvegicus, UniProt P35439+Q62645)
GluN1/2B = GluN1/2B (Rattus norvegicus, UniProt P35439+Q00960)
GluN1/2A = GluN1/2A (Rattus norvegicus, UniProt P35439)

| SMILES | EC50 (GluN1/2C) [µM] | EC50 (GluN1/2D) [µM] | EC50 (GluN1/2B) [µM] | EC50 (GluN1/2A) [µM] |
| --- | --- | --- | --- | --- |
| N[C@H](CSCc1ccccc1)C(=O)O [11b, S-benzylated D-cysteine] | > 300 | > 300 | – | – |
| CCCCC(=O)NC[C@H](N)C(=O)O [13b] | > 300 | > 300 | – | – |
| CCCCSC[C@H](N)C(=O)O [10a, S-Butyl L-cysteine] | > 300 | > 300 | – | – |
| N[C@@H](COCc1ccccc1)C(=O)O [8b] | > 300 | > 300 | > 300 | – |
| CCCCC(=O)NC[C@@H](N)C(=O)O [13a, pentanamido analogue 13a] | 206 | > 300 | > 300 | > 300 |
| CCCCSC[C@@H](N)C(=O)O [10b, S-Butyl D-cysteine] | > 300 | > 300 | > 300 | – |
| N[C@@H](CSCc1ccccc1)C(=O)O [11a, S-benzyl substituted L-cysteine] | 87 | > 300 | – | – |
